Laboratory results reported in US20250268926A1, “METHOD AND COMPOSITION FOR TREATING, ALLEVIATING OR PREVENTING A DISEASE OR CONDITION CAUSED BY AIR POLLUTANT” (Hong Kong Baptist University, priority 2024, published 2025).

Tests used:
Format in all cases: cell-based, human
BEAS-2B cells [1] = assay: Seahorse Cell Mito stress test (OCR); conditions: for ATP production / basal respiration / maximal respiration: after exposure to PM2.5 from both Taiyuan and Guangzhou (200 μg/mL), metabolite 200 μM
Description: (§1) To detect the cell viability, different concentrations (25 μM, 50 μM, 100 μM, and 200 μM) of selected metabolic markers were added to BEAS-2B cell cultures for 24 h, followed by 200 μg/mL PM2.5 samples for another 24 h. After exposure, 10 μL CCK-8 with 100 μL mediums were added to the cells and incubated for 1.5 h, the absorption was detected at 450 nm to assess cell viability. Agilent Seahorse assays were used to evaluate the effects of metabolic markers on mitochondrial functions. The OCR of cells was determined after being treated by both metabolic markers (200 μM) and PM2.5 samples (200 μg/mL) (n=3).
(§2) Cell Mito stress test: BEAS-2B cells were seeded in the XF 96-well Seahorse assay miniplates with a density of 20,000 cells/well in BEGM™ bronchial epithelial cell growth medium and incubated for 24 h at 37° C. After exposure, the cells were washed with XF assay medium including 10 mM glucose, 1 mM sodium pyruvate, and 2 mM L-glutamine (adjusted pH to 7.4 with 0.1 M NaOH) and incubated for 1 h in a 37° C. non-CO2 incubator. Before assay, the sensor cartridge was hydrated in Agilent Seahorse XF Calibrant at 37° C. in a non-CO2 incubator overnight, and oligomycin (port A final 1 μM), carbonyl cyanide-4-(trifluoromethoxy) phenylhydrazone (FCCP) (port B final 1 μM chosen from the optimization assay) and rotenone antimycin A (port C final 0.5 μM) were added to the corresponding ports of the hydrated sensor cartridge. Then the cartridge was transferred to the Seahorse analyzer (Agilent Technologies) to calibrate the period for approximately 20 min. When the calibration has been completed, the utility plate was removed and the cell miniplate was placed to start the assay. The assay was divided into four parts. After the equilibration period was three basal assays, and then oligomycin was added to inhibit the complex V (ATP synthase) for three cycles, FCCP was followed to stimulate maximal respiration in mitochondria by uncoupling ATP synthesis from electron transport. Lastly, rotenone plus antimycin A was added to determine the non-mitochondrial respiratory rate. Oxygen consumption rate (OCR) was used to assess the mitochondrial respiratory change.

BEAS-2B cells [2] = assay: Seahorse substrate oxidation stress test (glucose / fatty acid oxidation); conditions: for maximal respiration of cells with oxidation inhibitor: cells with or without PM2.5
Description: as §2
The substrate oxidation stress test was used to assess the specific mitochondrial substrates that were relevant or required for cellular phenotype and function. Two different inhibitors (UK50099 for the glucose pathway and etomoxir for the long-chain fatty acids pathway) were added before the Mito stress test and the following process was the same with the Mito stress test.

GFAT = assay: qPCR gene expression, GFAT; conditions: after exposure to PM2.5
Description: (§3) Total RNA was extracted from BEAS-2B cells with RNAiso plus kit (TaKaRa, Shiga, Japan) according to the manufacturer's instructions. Reverse transcription of cDNA synthesis and real-time quantitative polymerase chain reaction (qPCR) were performed as described previously. All primers synthesized at BGI Co., Ltd. (Hong Kong, China) were described in Table 2.

OGT = assay: qPCR gene expression, OGT; conditions: after PM2.5 exposure
Description: as §3

BEAS-2B cells [3] = assay: Cell viability (CCK-8) of BEAS-2B cells given metabolic markers, then PM2.5; conditions: metabolite 25-200 μM for 24 h, then 200 μg/mL PM2.5 for 24 h
Description: as §1

Phospho1 = assay: qPCR gene expression, Phospho1
Description: as §3

PGC-1α = assay: qPCR gene expression, PGC-1α; conditions: repressed by PM2.5 exposure
Description: as §3

With “uridine diphosphate N-acetylglucosamine [UDP-GlcNAc]” the ATP production (BEAS-2B cells [1]) was “significantly increase”, the basal respiration (BEAS-2B cells [1]) was “significantly increase” and the maximal respiration (BEAS-2B cells [1]) was “significantly increase”. For the same compound, the “increase of cells' glucose oxidation” value (BEAS-2B cells [2]; cultures with and without PM2.5) was 1.6 fold, the GFAT expression (GFAT) was “interacted with the decline of GFAT” and the OGT expression (OGT) was “partially rescued”.
With C[N+](C)(C)CCOP(=O)([O-])O [Pc, phosphocholine] the “cell viability reduced by PM2.5 exposure” value (BEAS-2B cells [3]) was “improve the cell viability”, the ATP production (BEAS-2B cells [1]) was “significantly increase” and the basal respiration (BEAS-2B cells [1]) was “significantly increase”. For the same compound, the maximal respiration (BEAS-2B cells [1]) was “significantly increase”, the “effect against adverse impacts of the TY1 panel on mitochondrial functions” value (BEAS-2B cells [1]; cells exposed to TY1) was “protective effects” and the “maximal respiration, fatty acid oxidation test” value (BEAS-2B cells [2]; only in the PM2.5-exposed lung cells) was “significantly increased”. For the same compound, the Phospho1 expression (Phospho1; after PM2.5 exposure) was “greatly downregulated”, the Phospho1 expression (Phospho1; normal cells) was “no effects” and the PGC-1α expression (PGC-1α) was “rescued”.
In the case of CCOC(=O)[C@@]1(CCCCCCOc2ccc(Cl)cc2)CO1 [etomoxir, reference compound], the “maximal respiration of cells with oxidation inhibitor” value (BEAS-2B cells [2]) is reported as “did not change”.
NCCS(=O)(=O)O [taurine] was tested, and the “cell viability reduced by PM2.5 exposure” value (BEAS-2B cells [3]) was “improve the cell viability”.
CC(=O)N[C@@H](CC(=O)O)C(=O)O [NAA, N-acetyl-aspartic acid] was tested, and the ATP production (BEAS-2B cells [1]) was “significantly increase”, the basal respiration (BEAS-2B cells [1]) was “significantly increase” and the maximal respiration (BEAS-2B cells [1]) was “significantly increase”.
In the case of N#C/C(=C\c1cn(-c2ccccc2)c2ccccc12)C(=O)O [UK5099, reference compound], the “maximal respiration of cells with oxidation inhibitor” value (BEAS-2B cells [2]) is reported as “remarkably reduced”.
For CN(CC(=O)O)C(=N)N [creatine], the “cell viability reduced by PM2.5 exposure” value (BEAS-2B cells [3]) was “improve the cell viability”.
